Experimental data: patent US7713994B2 (Wyeth LLC, priority 2005, dated 2010)

Columns and labels:
MCF-7 = assay: Cytotoxicity assay (SRB), MCF-7; assay type: cell-based; conditions: Homo sapiens, MCF7, 72 h, MCF-7 cells, 3 days, SRB; read-out: In Vitro Cellular Activity IC50 MCF-7
In short: (§1)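 Percentage survival is derived from SRB absorbance (540 nm) versus untreated cells. Exposures were 3 days, except 6 days for BT474, at 37 °C and 7% CO2.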

cyclin D1/cdk 4 enzyme = molecular target: T1, cyclin D1/cdk 4 enzyme (Homo sapiens, UniProt P11802); assay: CDK4 ELISA kinase assay (phospho-Rb ser 795 detection); assay type: biochemical; conditions: In Vitro Enzyme Assay, cyclin D1/cdk 4, read-out: CDK4 IC50
T1 construct: made in house; host or cells: Sf9 insect cells, recombinant baculovirus
T1 sequence (P11802 whole entry, species assumed): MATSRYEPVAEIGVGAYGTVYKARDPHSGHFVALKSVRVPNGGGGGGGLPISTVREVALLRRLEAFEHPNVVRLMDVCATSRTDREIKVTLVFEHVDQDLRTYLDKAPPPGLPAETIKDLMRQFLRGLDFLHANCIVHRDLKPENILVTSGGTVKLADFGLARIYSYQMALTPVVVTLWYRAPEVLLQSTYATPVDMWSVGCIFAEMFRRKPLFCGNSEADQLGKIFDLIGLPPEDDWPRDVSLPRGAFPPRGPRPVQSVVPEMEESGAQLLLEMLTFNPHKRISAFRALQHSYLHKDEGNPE
T1 sequence (P24385 whole entry partner, species assumed): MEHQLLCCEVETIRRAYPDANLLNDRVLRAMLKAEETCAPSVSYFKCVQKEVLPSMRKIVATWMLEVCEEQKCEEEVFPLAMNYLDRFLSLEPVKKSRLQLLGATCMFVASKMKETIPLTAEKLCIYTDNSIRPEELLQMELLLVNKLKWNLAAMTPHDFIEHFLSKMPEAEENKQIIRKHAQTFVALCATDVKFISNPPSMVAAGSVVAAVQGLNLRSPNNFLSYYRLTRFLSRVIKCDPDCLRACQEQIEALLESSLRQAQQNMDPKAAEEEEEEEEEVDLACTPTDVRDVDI
In short: (§2)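 Inhibition was derived from A450 relative to control wells lacking compound, following an anti-phospho-Rb Ser795 sandwich of HRP detection. The reactions combined coated GST-Rb fragment, 200 μM ATP and baculovirus-expressed cyclin/CDK enzymes, incubated for 1 h at 30° C.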

cyclin B/CDK1 enzyme = molecular target: T2, cyclin B/CDK1 enzyme (Homo sapiens, UniProt P06493); assay: CDK1 ELISA kinase assay (phospho-Rb ser 795 detection); assay type: biochemical; conditions: In Vitro Enzyme Assay, cyclin B/CDK1, read-out: CDK1 IC50
T2 construct: purchased New England BioLabs; host or cells: Sf9 insect cells, recombinant baculovirus
T2 sequence (P06493 whole entry): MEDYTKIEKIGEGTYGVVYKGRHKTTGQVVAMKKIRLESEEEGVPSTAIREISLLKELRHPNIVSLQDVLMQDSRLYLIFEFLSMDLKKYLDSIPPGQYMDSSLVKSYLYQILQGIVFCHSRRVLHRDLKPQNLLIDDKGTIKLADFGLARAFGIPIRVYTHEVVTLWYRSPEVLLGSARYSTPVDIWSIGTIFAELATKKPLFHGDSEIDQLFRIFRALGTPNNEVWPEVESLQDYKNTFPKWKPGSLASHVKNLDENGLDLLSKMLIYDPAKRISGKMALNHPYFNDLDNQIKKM
T2 sequence (P14635 whole entry partner): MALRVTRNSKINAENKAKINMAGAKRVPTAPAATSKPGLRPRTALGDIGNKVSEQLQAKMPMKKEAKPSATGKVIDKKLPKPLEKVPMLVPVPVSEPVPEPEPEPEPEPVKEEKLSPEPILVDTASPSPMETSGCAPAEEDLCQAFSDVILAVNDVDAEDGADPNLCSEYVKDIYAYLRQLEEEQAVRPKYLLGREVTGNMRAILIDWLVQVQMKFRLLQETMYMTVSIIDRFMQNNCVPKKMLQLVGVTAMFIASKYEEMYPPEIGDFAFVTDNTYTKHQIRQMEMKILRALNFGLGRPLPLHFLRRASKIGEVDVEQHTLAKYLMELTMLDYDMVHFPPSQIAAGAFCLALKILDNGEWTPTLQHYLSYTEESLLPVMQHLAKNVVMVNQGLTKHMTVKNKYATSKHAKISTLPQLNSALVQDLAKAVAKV
In short: as §2

LoVo = assay: Cytotoxicity assay (SRB), LoVo; assay type: cell-based; conditions: Homo sapiens, LoVo, 72 h, LoVo cells, 3 days, SRB; read-out: In Vitro Cellular Activity IC50 LOVO
In short: as §1

HCT-116 = assay: Cytotoxicity assay (SRB), HCT-116; assay type: cell-based; conditions: Homo sapiens, HCT-116, 72 h, HCT116 cells, 3 days, SRB; read-out: In Vitro Cellular Activity IC50 HCT116
In short: as §1

BT474 = assay: Cytotoxicity assay (SRB), BT474; assay type: cell-based; conditions: Homo sapiens, BT-474, 144 h, BT474 cells, 6 days, SRB; read-out: In Vitro Cellular Activity IC50 BT474
In short: as §1

cyclin E/CDK2 enzyme = molecular target: T3, cyclin E/CDK2 enzyme (Homo sapiens, UniProt P24941); assay: CDK2 ELISA kinase assay (phospho-Rb ser 795 detection); assay type: biochemical; conditions: In Vitro Enzyme Assay, cyclin E/CDK2, read-out: CDK2 IC50
T3 construct: made in house; host or cells: Sf9 insect cells, recombinant baculovirus
In short: as §2

IC50 (cyclin D1/cdk 4 enzyme) [nM]	IC50 (cyclin B/CDK1 enzyme) [µM]	IC50 (cyclin E/CDK2 enzyme) [µM]	SMILES	IC50 (MCF-7) [µM]	IC50 (LoVo) [µM]	IC50 (HCT-116) [µM]	IC50 (BT474) [µM]
< 5	8.6	2.6	O=C1NC(=O)c2ccc(-c3ccc[nH]3)cc2C1=CNCc1ccc(O)c(O)c1 [Example 647, 4-[(3,4-Dihydroxy-benzylamino)-methylene]-6-(1H-pyrrol-2-yl)-4H-isoquinoline-1,3-dione]	19.5	9.5	15.3	18.3
570	23.6	11	NS(=O)(=O)c1ccc(CNC=C2C(=O)NC(=O)c3ccc(C=Cc4cnccn4)cc32)cc1 [Example 655, 4-({[1,3-Dioxo-6-(2-pyrazin-2-yl-vinyl)-2,3-dihydro-1H-isoquinolin-4-ylidenemethyl]-amino}-methyl)-benzenesulfonamide]	7.7	7.6	1.2	2
440	> 50	18	Cc1ncsc1C=Cc1ccc2c(c1)C(=CNCc1ccc(S(N)(=O)=O)cc1)C(=O)NC2=O [Example 659, 4-[({6-[2-(4-Methyl-thiazol-5-yl)-vinyl]-1,3-dioxo-2,3-dihydro-1H-isoquinolin-4-ylidenemethyl}-amino)-methyl]-benzenesulfonamide]	40.9	> 50	26	23.1
2480	> 50	33.9	O=C1NC(=O)c2ccc(C=CCc3ccccc3)cc2C1=CNCc1ccc(O)c(O)c1 [Example 660, 4-[(3,4-Dihydroxy-benzylamino)-methylene]-6-(3-phenyl-propenyl)-4H-isoquinoline-1,3-dione]	6.1	7.6	7	10.4
170	> 50	> 50	O=C1NC(=O)c2ccc(C=Cc3ccccn3)cc2C1=CNCc1ccc(O)c(O)c1 [Example 662, 4-[(3,4-Dihydroxy-benzylamino)-methylene]-6-(2-pyridin-2-yl-vinyl)-4H-isoquinoline-1,3-dione]	30.6	> 50	> 50	35.8
220	> 50	31.7	O=C1NC(=O)c2ccc(C=CC3CCCCC3)cc2C1=CNCc1ccc(O)c(O)c1 [Example 664, 6-(2-Cyclohexyl-vinyl)-4-[(3,4-dihydroxy-benzylamino)-methylene]-4H-isoquinoline-1,3-dione]	4.8	6	6.7	9.3
160	42.5	8.2	O=C1NC(=O)c2ccc(C=CCn3ccnc3)cc2C1=CNCc1ccc(O)c(O)c1 [Example 665, 4-[(3,4-Dihydroxy-benzylamino)-methylene]-6-(3-imidazol-1-yl-propenyl)-4H-isoquinoline-1,3-dione]	13	> 50	46.8	28.9
10	> 50	4	O=C1NC(=O)c2ccc(C=Cn3ccnc3)cc2C1=CNCc1ccc(O)c(O)c1 [Example 667, 4-[(3,4-Dihydroxy-benzylamino)-methylene]-6-(2-imidazol-1-yl-vinyl)-4H-isoquinoline-1,3-dione]	12.4	29.4	> 50	> 50
2000	11.8	38	CN1CCN(c2ccc(NC=C3C(=O)NC(=O)c4ccc(-c5ccc6[nH]ccc6c5)cc43)cc2)CC1 [Example 671, 6-(1H-Indol-5-yl)-4-{[4-(4-methyl-piperazin-1-yl)-phenylamino]-methylene}-4H-isoquinoline-1,3-dione]	4.4	4.1	2.3	2.8
640	> 50	> 50	CN1CCN(c2ccc(NC=C3C(=O)NC(=O)c4ccc(-c5ccc[nH]5)cc43)cc2)CC1 [Example 672, 4-{[4-(4-Methyl-piperazin-1-yl)-phenylamino]-methylene}-6-(1H-pyrrol-2-yl)-4H-isoquinoline-1,3-dione]	3.2	2.9	3.4	7.9
1000	> 50	> 50	CN1CCN(c2ccc(NC=C3C(=O)NC(=O)c4ccc(-c5cc[nH]c5)cc43)cc2)CC1 [Example 673, 4-{[4-(4-Methyl-piperazin-1-yl)-phenylamino]-methylene}-6-(1H-pyrrol-3-yl)-4H-isoquinoline-1,3-dione]	5.8	5	3	8.5
1770	> 50	> 50	CN1CCN(c2ccc(NC=C3C(=O)NC(=O)c4ccc(C=Cc5ccccn5)cc43)cc2)CC1 [Example 675, 4-{[4-(4-Methyl-piperazin-1-yl)-phenylamino]-methylene}-6-(2-pyridin-2-yl-vinyl)-4H-isoquinoline-1,3-dione]	7.2	6.8	2.3	7.7
920	15.1	15.8	CN1CCN(c2ccc(NC=C3C(=O)NC(=O)c4ccc(C=Cc5ccncc5)cc43)cc2)CC1 [Example 676, 4-{[4-(4-Methyl-piperazin-1-yl)-phenylamino]-methylene}-6-(2-pyridin-4-yl-vinyl)-4H-isoquinoline-1,3-dione]	7.3	4.6	2.5	7.7
1160	14.4	> 50	CN1CCN(c2ccc(NC=C3C(=O)NC(=O)c4ccc(C=Cc5cnccn5)cc43)cc2)CC1 [Example 678, 4-{[4-(4-Methyl-piperazin-1-yl)-phenylamino]-methylene}-6-(2-pyrazin-2-yl-vinyl)-4H-isoquinoline-1,3-dione]	10.5	6.1	3.5	9.1
230	> 50	> 50	CN1CCN(c2ccc(NC=C3C(=O)NC(=O)c4ccc(C=Cn5ccnc5)cc43)cc2)CC1 [Example 680, 6-(2-Imidazol-1-yl-vinyl)-4-{[4-(4-methyl-piperazin-1-yl)-phenylamino]-methylene}-4H-isoquinoline-1,3-dione]	6.9	4.7	5.9	15.2
1510	> 50	> 50	CN1CCN(c2ccc(NC=C3C(=O)NC(=O)c4ccc(-c5ccc(C(=O)O)cc5)cc43)cc2)CC1 [Example 685, 4-(4-{[4-(4-Methyl-piperazin-1-yl)-phenylamino]-methylene}-1,3-dioxo-1,2,3,4-tetrahydro-isoquinolin-6-yl)-benzoic acid]	22.1	25	18.4	36.9
260	21.1	> 50	CC(=O)c1ccc(-c2ccc3c(c2)C(=CNc2ccc(N4CCN(C)CC4)cc2)C(=O)NC3=O)cc1 [Example 688, 6-(4-Acetyl-phenyl)-4-{[4-(4-methyl-piperazin-1-yl)-phenylamino]-methylene}-4H-isoquinoline-1,3-dione]	5	4.6	2	3.3
280	> 50	> 50	CN1CCN(c2ccc(NC=C3C(=O)NC(=O)c4ccc(-c5ccc(C=CC(=O)O)cc5)cc43)cc2)CC1 [Example 698, 3-[4-(4-{[4-(4-Methyl-piperazin-1-yl)-phenylamino]-methylene}-1,3-dioxo-1,2,3,4-tetrahydro-isoquinolin-6-yl)-phenyl]-acrylic acid]	> 50	> 50	46.3	48.1
70	1	1.3	CN1CCN(c2ccc(NC=C3C(=O)NC(=O)c4ccc(C=Cc5ccc(S(N)(=O)=O)cc5)cc43)cc2)CC1 [Example 728, 4-[2-(4-{[4-(4-Methyl-piperazin-1-yl)-phenylamino]-methylene}-1,3-dioxo-1,2,3,4-tetrahydro-isoquinolin-6-yl)-vinyl]-benzenesulfonamide]	> 50	> 50	29.1	> 50
